According to PubChem BioAssay AID330 (DTP/NCI, 2004):
Where “and” joins values, the source holds several entries; their conditions need not be identical. Equal values may be shown once. Toxic doses and inconclusive results are not listed. Rule for the calls: active = survival T/C of 150% or more; inactive = T/C below 125% in these data.

Test system: P388 leukemia ip, CD2F1 mice, survival T/C
Test: NCI In Vivo Anticancer Drug Screen. Data for tumor model P388 Leukemia (intraperitoneal) in CD2F1 (CDF1) mice
Conditions: endpoint: median survival time, higher = longer survival
Method in brief: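 Mice carrying the transplanted tumor received test compound or vehicle. Survival was recorded in each group, and the value is the treated-group measurement divided by that of the vehicle-treated control group.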

[1] = dose: 50.0 mg/kg/injection, schedule: Q01DX009 (ip), vehicle: Klucel (hydroxypropylcellulose) (HPC)
[2] = dose: 100.0 mg/kg/injection, schedule: Q01DX009 (ip), vehicle: Klucel (hydroxypropylcellulose) (HPC)
[3] = dose: 200.0 mg/kg/injection, schedule: Q01DX009 (ip), vehicle: Klucel (hydroxypropylcellulose) (HPC)
[4] = dose: 50.0 mg/kg/injection, schedule: Q01DX005 (ip), vehicle: distilled water + alcohol
[5] = dose: 100.0 mg/kg/injection, schedule: Q01DX005 (ip), vehicle: distilled water + alcohol
[6] = dose: 50.0 mg/kg/injection, schedule: Q01DX005 (ip), vehicle: saline with Tween-80
[7] = dose: 100.0 mg/kg/injection, schedule: Q01DX005 (ip), vehicle: saline with Tween-80
[8] = dose: 200.0 mg/kg/injection, schedule: Q01DX005 (ip), vehicle: saline with Tween-80

Measured: T/C

O=S(=O)([O][Hg][CH2]C1Cc2ccccc2O1)[O][Hg][CH2]C1Cc2ccccc2O1 (configuration not stated)
inactive: dose: 11.0 mg/kg/injection, schedule: Q01DX009 (ip), vehicle: saline with Tween-80 118 % of control

NN=c1c2ccccc2oc2ccccc12
inactive: [1] 112 % of control | [2] 115 % of control | [3] 115 % of control

N#Cc1c(N)nc2c(c1N)CC(CO)O2 (configuration not stated)
inactive: dose: 50.0 mg/kg/injection, schedule: Q01DX009 (ip), vehicle: saline with Tween-80 96 % of control | dose: 100.0 mg/kg/injection, schedule: Q01DX009 (ip), vehicle: saline with Tween-80 93 % of control

CN1CCC(C(=O)O)(c2ccccc2)CC1
inactive: dose: 9.4 mg/kg/injection, schedule: Q01DX009 (ip), vehicle: saline with Tween-80 100 % of control | dose: 18.8 mg/kg/injection, schedule: Q01DX009 (ip), vehicle: saline with Tween-80 98 % of control | dose: 37.5 mg/kg/injection, schedule: Q01DX009 (ip), vehicle: saline with Tween-80 97 % of control | dose: 75.0 mg/kg/injection, schedule: Q01DX009 (ip), vehicle: saline with Tween-80 111 % of control

CP1(=S)C=C(N2CCOCC2)CC1 (configuration not stated)
inactive: [1] 100 % of control | [2] 100 % of control | [3] 86 % of control

CCn1cc(C(=O)O)c(=O)c2cc(F)c(-n3cccc3)cc21
inactive: dose: 60.0 mg/kg/injection, schedule: Q01DX005 (ip), vehicle: saline with Tween-80 101 % of control | dose: 120.0 mg/kg/injection, schedule: Q01DX005 (ip), vehicle: saline with Tween-80 99 % of control | dose: 240.0 mg/kg/injection, schedule: Q01DX005 (ip), vehicle: saline with Tween-80 98 % of control

Cc1nc2nc3n(c(=O)c2nc1C)CCS3
inactive: dose: 100.0 mg/kg/injection, schedule: Q01DX001 (ip), vehicle: saline 103 % of control | dose: 200.0 mg/kg/injection, schedule: Q01DX001 (ip), vehicle: saline 108 % of control | dose: 400.0 mg/kg/injection, schedule: Q01DX001 (ip), vehicle: saline 102 % of control

N#CC(/C=C/c1ccccc1)Nc1ccccc1N (configuration not stated)
inactive: dose: 100.0 mg/kg/injection, schedule: Q01DX001 (ip), vehicle: saline with Tween-80 100 % of control | dose: 400.0 mg/kg/injection, schedule: Q01DX001 (ip), vehicle: saline with Tween-80 100 % of control

Cc1cc(=NO)cc(C)n1O
inactive: dose: 25.0 mg/kg/injection, schedule: Q01DX005 (ip), vehicle: distilled water + alcohol 113 % of control | [4] 113 % of control and 123 % of control | dose: 50.0 mg/kg/injection, schedule: Q01DX005 (ip), vehicle: water 115 % of control | [5] 121 % of control | dose: 100.0 mg/kg/injection, schedule: Q01DX005 (ip), vehicle: water 106 % of control | dose: 200.0 mg/kg/injection, schedule: Q01DX005 (ip), vehicle: water 118 % of control

N=c1ccccn1CCO
inactive: dose: 60.0 mg/kg/injection, schedule: Q01DX005 (ip), vehicle: saline 94 % of control | dose: 120.0 mg/kg/injection, schedule: Q01DX005 (ip), vehicle: saline 99 % of control

C=CC(=O)C1OC2OC(C)(C)OC2C2OC(C)(C)OC12 (configuration not stated)
inactive: [6] 93 % of control | [7] 97 % of control | [8] 98 % of control

Nc1nc(N)c2ncn(-c3ccc(Cl)c(Cl)c3)c2n1
inactive: [6] 101 % of control | [7] 97 % of control | [8] 106 % of control

CC12OC1C(=O)C1C3C=CC(C3)C1C2=O (configuration not stated)
inactive: dose: 75.0 mg/kg/injection, schedule: Q04DX002 (ip), vehicle: saline with Tween-80 96 % of control | dose: 150.0 mg/kg/injection, schedule: Q04DX002 (ip), vehicle: saline with Tween-80 96 % of control | dose: 300.0 mg/kg/injection, schedule: Q04DX002 (ip), vehicle: saline with Tween-80 97 % of control

C=C[C@H]1[C@H](OC2OC(CO)C(O)C(O)C2O)OC=C2C(=O)N3CCS[C@H]3C[C@H]21 (some centres not stated)
inactive: dose: 9.38 mg/kg/injection, schedule: Q01DX005 (ip), vehicle: Klucel (hydroxypropylcellulose) (HPC) 97 % of control | dose: 18.75 mg/kg/injection, schedule: Q01DX005 (ip), vehicle: Klucel (hydroxypropylcellulose) (HPC) 98 % of control | dose: 37.5 mg/kg/injection, schedule: Q01DX005 (ip), vehicle: Klucel (hydroxypropylcellulose) (HPC) 107 % of control | dose: 75.0 mg/kg/injection, schedule: Q01DX005 (ip), vehicle: Klucel (hydroxypropylcellulose) (HPC) 95 % of control | dose: 150.0 mg/kg/injection, schedule: Q01DX005 (ip), vehicle: Klucel (hydroxypropylcellulose) (HPC) 98 % of control

c1ccc(CCn2c(-c3ccncc3)nc3ccccc32)nc1
inactive: dose: 25.0 mg/kg/injection, schedule: Q01DX005 (ip), vehicle: Klucel (hydroxypropylcellulose) (HPC) 109 % of control | dose: 50.0 mg/kg/injection, schedule: Q01DX005 (ip), vehicle: Klucel (hydroxypropylcellulose) (HPC) 104 % of control | dose: 100.0 mg/kg/injection, schedule: Q01DX005 (ip), vehicle: Klucel (hydroxypropylcellulose) (HPC) 107 % of control | dose: 200.0 mg/kg/injection, schedule: Q01DX005 (ip), vehicle: Klucel (hydroxypropylcellulose) (HPC) 105 % of control

CCc1c2oc(C(=O)c3ccc(Cl)cc3)cc2n2ccccc12
inactive: dose: 60.0 mg/kg/injection, schedule: Q01DX005 (ip), vehicle: Klucel + Tween-80 89 % of control | dose: 120.0 mg/kg/injection, schedule: Q01DX005 (ip), vehicle: Klucel + Tween-80 86 % of control

CN(C)c1ncnc2c1ccn2CC(O)CO (configuration not stated)
inactive: [4] 109 % of control | [5] 101 % of control | dose: 200.0 mg/kg/injection, schedule: Q01DX005 (ip), vehicle: distilled water + alcohol 97 % of control

CNC(=S)NNc1ccccn1
inactive: dose: 12.5 mg/kg/injection, schedule: Q01DX009 (ip), vehicle: other 105 % of control | dose: 25.0 mg/kg/injection, schedule: Q01DX009 (ip), vehicle: other 102 % of control | dose: 50.0 mg/kg/injection, schedule: Q01DX009 (ip), vehicle: other 104 % of control | dose: 100.0 mg/kg/injection, schedule: Q01DX009 (ip), vehicle: other 101 % of control | dose: 200.0 mg/kg/injection, schedule: Q01DX009 (ip), vehicle: other 95 % of control

O=C(O)c1cnc2cc3c(cc2c1Nc1ccc2c(c1)OCO2)OCO3
inactive: dose: 60.0 mg/kg/injection, schedule: Q01DX005 (ip), vehicle: Klucel (hydroxypropylcellulose) (HPC) 93 % of control | dose: 120.0 mg/kg/injection, schedule: Q01DX005 (ip), vehicle: Klucel (hydroxypropylcellulose) (HPC) 92 % of control | dose: 240.0 mg/kg/injection, schedule: Q01DX005 (ip), vehicle: Klucel (hydroxypropylcellulose) (HPC) 96 % of control

COc1ccc2c(c1OC)C[N+]1(C)CCc3cc4c(cc3C1=C2C)OCO4 (configuration not stated)
inactive: dose: 1.56 mg/kg/injection, schedule: Q01DX005 (ip), vehicle: Klucel (hydroxypropylcellulose) (HPC) 99 % of control | dose: 3.12 mg/kg/injection, schedule: Q01DX005 (ip), vehicle: Klucel (hydroxypropylcellulose) (HPC) 99 % of control | dose: 6.25 mg/kg/injection, schedule: Q01DX005 (ip), vehicle: Klucel (hydroxypropylcellulose) (HPC) 103 % of control and 113 % of control

C/C1=C\C[C@@H](O)/C(C)=C/[C@H]2OC(=O)[C@H](C)[C@@H]2CC1
inactive: dose: 8.75 mg/kg/injection, schedule: Q01DX005 (ip), vehicle: Klucel (hydroxypropylcellulose) (HPC) 94 % of control | dose: 17.5 mg/kg/injection, schedule: Q01DX005 (ip), vehicle: Klucel (hydroxypropylcellulose) (HPC) 102 % of control | dose: 35.0 mg/kg/injection, schedule: Q01DX005 (ip), vehicle: Klucel (hydroxypropylcellulose) (HPC) 100 % of control | dose: 70.0 mg/kg/injection, schedule: Q01DX005 (ip), vehicle: Klucel (hydroxypropylcellulose) (HPC) 86 % of control
